Consider two compounds from PMC5491903, “The Selective Phosphoinoside-3-Kinase p110δ Inhibitor IPI-3063 Potently Suppresses B Cell Survival, Proliferation, and Differentiation” (Frontiers in Immunology, 2017).

The target of data set [1] is T1, p110γ (Mus musculus, UniProt Q9JHG7). Further details: method as in PMID 16789742. The conditions noted are these: read-out: biochemical IC50; cited from earlier work.
Data set [2] has as its system LPS-stimulated mouse B cells. Nature of the data set: IgM secretion by ELISA. It counts as cell-based. The conditions noted are these: supernatant after 3 days. From the text:
We also evaluated plasmablast differentiation and IgM secretion in LPS-stimulated cells (Figure 5D). […] In cells treated with IPI-3063 or IPI-443, the highest concentrations inhibited plasmablast differentiation to the same degree as GDC-0941.
For cell culture ELISA to measure total IgM, supernatants from purified B cells stimulated with LPS were collected after 3 days and diluted 1:1,000 in 2% (wt/vol) BSA in PBS. Nunc Maxisorp plates (Thermo Fisher) were coated with anti-mouse IgM (RMM-1; BioLegend) at 10 µg/mL in 50 µL of total sample in PBS and allowed to incubate overnight at 4°C. Diluted supernatant samples were incubated on coated plates for 1 h at 37°C. HRP-conjugated rabbit anti-mouse IgM secondary antibody (Zymed) was used.
Background: In an ELISA, binding on a coated surface is turned into a signal by an enzyme label.

For data set [3], the target named is T2, p110α (Homo sapiens, UniProt P42336).
T2 construct: heterodimers consisting of full length p110α, p110β, or p110δ catalytic subunit and the p85α regulatory subunit; purchased Millipore 14-602-K
T2 sequence (P42336 whole entry): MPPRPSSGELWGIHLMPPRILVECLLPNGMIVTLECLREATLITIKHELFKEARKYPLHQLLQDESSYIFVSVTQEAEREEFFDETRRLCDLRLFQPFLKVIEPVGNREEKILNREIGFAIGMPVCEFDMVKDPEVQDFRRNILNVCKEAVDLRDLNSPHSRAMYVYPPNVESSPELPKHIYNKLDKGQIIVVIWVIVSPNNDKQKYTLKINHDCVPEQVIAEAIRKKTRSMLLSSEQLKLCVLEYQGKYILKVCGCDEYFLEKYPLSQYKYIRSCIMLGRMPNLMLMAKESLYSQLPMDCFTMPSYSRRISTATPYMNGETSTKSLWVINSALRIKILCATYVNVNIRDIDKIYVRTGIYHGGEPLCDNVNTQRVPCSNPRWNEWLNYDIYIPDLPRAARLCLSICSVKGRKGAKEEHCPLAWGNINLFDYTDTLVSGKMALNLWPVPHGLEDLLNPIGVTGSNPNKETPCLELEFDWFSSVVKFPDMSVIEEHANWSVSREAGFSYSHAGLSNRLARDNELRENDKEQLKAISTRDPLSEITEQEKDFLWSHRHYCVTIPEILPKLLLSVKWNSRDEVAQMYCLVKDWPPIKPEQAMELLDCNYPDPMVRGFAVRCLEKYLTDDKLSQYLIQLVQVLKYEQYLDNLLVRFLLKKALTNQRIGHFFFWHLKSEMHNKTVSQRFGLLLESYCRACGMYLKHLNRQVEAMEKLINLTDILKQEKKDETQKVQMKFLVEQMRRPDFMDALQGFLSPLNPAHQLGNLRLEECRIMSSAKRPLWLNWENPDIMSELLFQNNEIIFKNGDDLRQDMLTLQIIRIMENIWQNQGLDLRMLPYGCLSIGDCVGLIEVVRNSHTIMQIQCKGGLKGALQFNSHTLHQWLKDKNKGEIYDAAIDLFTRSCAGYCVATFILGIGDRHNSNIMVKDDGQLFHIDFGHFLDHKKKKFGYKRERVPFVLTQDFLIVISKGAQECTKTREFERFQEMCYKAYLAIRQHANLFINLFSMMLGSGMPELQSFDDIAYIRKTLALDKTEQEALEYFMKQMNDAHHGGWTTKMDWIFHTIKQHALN
T2 sequence (P27986 whole entry partner): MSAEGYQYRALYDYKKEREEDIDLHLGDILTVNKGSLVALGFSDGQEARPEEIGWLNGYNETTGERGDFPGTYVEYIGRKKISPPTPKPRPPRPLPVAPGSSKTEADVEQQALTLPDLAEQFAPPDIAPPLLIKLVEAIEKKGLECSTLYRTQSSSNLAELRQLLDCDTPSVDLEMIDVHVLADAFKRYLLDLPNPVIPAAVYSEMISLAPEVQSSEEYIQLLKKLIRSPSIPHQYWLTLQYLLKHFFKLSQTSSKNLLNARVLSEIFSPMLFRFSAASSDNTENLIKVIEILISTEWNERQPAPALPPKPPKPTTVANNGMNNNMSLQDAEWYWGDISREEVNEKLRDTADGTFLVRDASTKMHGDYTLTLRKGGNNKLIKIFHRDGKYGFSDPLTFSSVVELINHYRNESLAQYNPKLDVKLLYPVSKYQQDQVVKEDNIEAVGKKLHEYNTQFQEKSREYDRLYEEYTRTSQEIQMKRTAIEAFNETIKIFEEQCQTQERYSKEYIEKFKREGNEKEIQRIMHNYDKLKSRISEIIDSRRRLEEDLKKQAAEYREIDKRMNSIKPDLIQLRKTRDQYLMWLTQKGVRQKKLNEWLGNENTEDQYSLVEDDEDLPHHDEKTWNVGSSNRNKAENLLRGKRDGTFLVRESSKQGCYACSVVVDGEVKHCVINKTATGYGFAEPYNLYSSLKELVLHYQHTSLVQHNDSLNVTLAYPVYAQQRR
Nature of the data set: PI3K enzymatic assay (ADP-Glo) with purified enzymes. The conditions noted are these: purified enzyme, mean ± spread (n), read-out: Biochemical IC50. The procedure: (§1) Human recombinant PI3K-α (cat. no. 14-602-K), -β (cat. no. 14-603-K), -δ (cat. no. 14-604-K), and -γ (cat. no. 14-558-K) were purchased from Millipore. Phosphatidylinositol 4,5 bis phosphate (diC8-PtdIns(4,5)P2) was purchased from Avanti Polar Lipids, Inc. PI3K-α, β, and δ are heterodimers consisting of full length p110α, p110β, or p110δ catalytic subunit and the p85α regulatory subunit. PI3K-γ is a monomer of the p110γ catalytic subunit. Samples of kinase (10 nM—α, β, and δ; 20 nM—γ) were incubated with inhibitor for 30 min at room temperature in reaction buffer (15 mM HEPES pH 7.4, 20 mM NaCl, 1 mM EGTA, 0.02% Tween 20, 10 mM MgCl2, 0.2 mg/mL bovine-γ-globulins) followed by addition of ATP/diC8-PtdIns(4,5)P2 mixture to give final concentrations of 3 mM ATP and 500 µM diC8-PtdIns(4,5)P2. Reactions were incubated at room temperature for 2 h, with PI3K activity assessed via the Promega ADP-Glo Max assay kit (cat. no. V7002) according to the manufacturer’s instruction. Plates were read on Envision plate reader in luminescence mode.
Background: In ADP-Glo the light output rises with the ADP produced.

The target of data set [4] is T3, p110γ (Homo sapiens, UniProt P48736).
T3 construct: purchased Millipore 14-558-K
T3 sequence (P48736 whole entry): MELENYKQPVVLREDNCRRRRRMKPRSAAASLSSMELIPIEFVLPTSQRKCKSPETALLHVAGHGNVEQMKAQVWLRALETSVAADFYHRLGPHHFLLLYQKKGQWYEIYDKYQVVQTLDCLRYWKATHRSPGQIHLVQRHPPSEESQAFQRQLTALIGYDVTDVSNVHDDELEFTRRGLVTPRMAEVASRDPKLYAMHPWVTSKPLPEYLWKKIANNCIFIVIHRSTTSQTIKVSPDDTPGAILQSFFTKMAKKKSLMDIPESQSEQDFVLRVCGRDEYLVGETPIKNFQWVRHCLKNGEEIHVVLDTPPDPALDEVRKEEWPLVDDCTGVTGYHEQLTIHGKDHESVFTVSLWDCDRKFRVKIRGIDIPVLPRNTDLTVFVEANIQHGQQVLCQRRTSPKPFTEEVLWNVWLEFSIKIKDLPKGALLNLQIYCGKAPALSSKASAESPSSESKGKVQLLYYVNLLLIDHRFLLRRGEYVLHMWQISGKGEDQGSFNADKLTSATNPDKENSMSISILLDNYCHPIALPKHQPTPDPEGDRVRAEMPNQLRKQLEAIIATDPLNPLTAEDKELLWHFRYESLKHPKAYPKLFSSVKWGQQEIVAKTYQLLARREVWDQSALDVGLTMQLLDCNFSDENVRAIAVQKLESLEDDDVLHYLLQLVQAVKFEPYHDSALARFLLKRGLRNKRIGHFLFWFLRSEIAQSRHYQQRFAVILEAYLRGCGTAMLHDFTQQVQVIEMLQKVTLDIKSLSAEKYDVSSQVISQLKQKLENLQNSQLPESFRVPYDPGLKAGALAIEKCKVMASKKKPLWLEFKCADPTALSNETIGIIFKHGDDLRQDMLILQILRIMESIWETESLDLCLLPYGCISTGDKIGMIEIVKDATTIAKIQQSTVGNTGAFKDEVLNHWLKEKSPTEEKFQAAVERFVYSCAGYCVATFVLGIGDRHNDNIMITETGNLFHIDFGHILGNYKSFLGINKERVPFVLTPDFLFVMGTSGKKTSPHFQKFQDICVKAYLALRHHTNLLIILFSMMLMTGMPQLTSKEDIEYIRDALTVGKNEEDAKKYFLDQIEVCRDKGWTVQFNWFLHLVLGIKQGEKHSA
The description is as above. The settings on record: purified enzyme, mean ± spread (n), read-out: Biochemical IC50. The procedure: as §1

Data set [5] has as its target T4, p110δ (Homo sapiens, UniProt O00329).
T4 construct: heterodimers consisting of full length p110α, p110β, or p110δ catalytic subunit and the p85α regulatory subunit; purchased Millipore 14-604-K
The description is as above. The conditions noted are these: purified enzyme, mean ± spread (n), read-out: Biochemical IC50. The procedure:
as §1

Data set [6] has as its system p110δ. The experiment in a line: isoform-specific cell-based assay, pAKT S473 ELISA. The procedure:
(§2) Phospho-Akt1 (S473) sandwich ELISA antibody kit (Cell Signaling Technology, cat. no. 7143) was utilized to analyze pAKT signal in cells as described previously by Winkler et al. ([11]) (for data see Table 2). Briefly, SKOV3 and 786.0 cells were seeded into 96-well cell culture-graded plates at a density of […] per 200 µl culture media per well. Raji and Raw264.7 were seeded at the same density in FBS-free media. After overnight incubation at 5% CO2 and 37°C, the cells were treated with inhibitor for 30 min. Raji cells were stimulated with 10 µg/mL anti-human IgM (Jackson ImmunoResearch) for 30 min and Raw264.7 cells with 25 nM C5a (RnD Systems) for 3 min in the presence of inhibitor. SKOV3 and 786.0 cells were not stimulated. Medium was then aspirated and 50 µL/well of ice-cold lysis buffer was added. pAKT level was determined according to the manufacturer’s instruction.

Data set [7] deals with p110α. The experiment in a line: isoform-specific cell-based assay, pAKT S473 ELISA. The conditions noted are these: read-out: Cellular IC50. On the procedure:
as §2

The target of the next data set is p110β (Homo sapiens, UniProt P42338). Nature of the data set: PI3K enzymatic assay (ADP-Glo) with purified enzymes. Further details: heterodimers consisting of full length p110α, p110β, or p110δ catalytic subunit and the p85α regulatory subunit; purchased Millipore 14-603-K. The conditions noted are these: purified enzyme, mean ± spread (n), read-out: Biochemical IC50. On the procedure:
as §1

Data set [8] has as its target T1, p110γ. Nature of the data set: isoform-specific cell-based assay, pAKT S473 ELISA. Also noted: endogenous in cells; host or cells: Raw264.7. The settings on record: read-out: Cellular IC50. On the procedure: as §2
On the set-up of data set [9]: method as in PMID 24211136. The conditions noted are these: cited from earlier work.

Read-outs that look alike come from different tables or passages of the source.

T1 sequence (Q9JHG7 whole entry): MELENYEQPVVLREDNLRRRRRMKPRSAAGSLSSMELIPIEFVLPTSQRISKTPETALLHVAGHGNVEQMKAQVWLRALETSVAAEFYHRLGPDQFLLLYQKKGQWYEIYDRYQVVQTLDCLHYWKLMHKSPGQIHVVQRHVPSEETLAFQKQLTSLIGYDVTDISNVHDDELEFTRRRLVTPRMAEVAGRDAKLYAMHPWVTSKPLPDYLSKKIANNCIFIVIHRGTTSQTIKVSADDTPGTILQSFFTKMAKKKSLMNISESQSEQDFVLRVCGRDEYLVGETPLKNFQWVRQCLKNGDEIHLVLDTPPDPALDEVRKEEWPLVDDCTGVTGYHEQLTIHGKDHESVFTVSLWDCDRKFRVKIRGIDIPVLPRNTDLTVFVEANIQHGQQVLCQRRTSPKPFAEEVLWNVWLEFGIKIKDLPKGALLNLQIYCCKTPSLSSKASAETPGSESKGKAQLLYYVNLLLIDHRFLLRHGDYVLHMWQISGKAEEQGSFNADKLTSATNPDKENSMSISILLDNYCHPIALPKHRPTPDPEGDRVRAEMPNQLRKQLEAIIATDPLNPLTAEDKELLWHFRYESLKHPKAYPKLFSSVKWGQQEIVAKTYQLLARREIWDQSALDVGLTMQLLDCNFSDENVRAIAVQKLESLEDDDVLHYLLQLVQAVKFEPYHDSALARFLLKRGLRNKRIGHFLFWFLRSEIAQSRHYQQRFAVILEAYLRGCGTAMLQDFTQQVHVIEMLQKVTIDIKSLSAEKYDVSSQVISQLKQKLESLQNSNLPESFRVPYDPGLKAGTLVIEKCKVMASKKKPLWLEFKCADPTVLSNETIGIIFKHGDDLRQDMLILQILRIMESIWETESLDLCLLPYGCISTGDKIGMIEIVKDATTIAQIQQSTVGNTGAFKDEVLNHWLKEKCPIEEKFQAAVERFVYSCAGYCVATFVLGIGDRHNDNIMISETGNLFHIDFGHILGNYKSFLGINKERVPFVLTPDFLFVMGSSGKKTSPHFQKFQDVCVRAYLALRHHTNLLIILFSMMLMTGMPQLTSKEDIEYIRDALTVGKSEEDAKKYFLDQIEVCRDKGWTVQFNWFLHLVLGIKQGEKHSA
T4 sequence (O00329 whole entry): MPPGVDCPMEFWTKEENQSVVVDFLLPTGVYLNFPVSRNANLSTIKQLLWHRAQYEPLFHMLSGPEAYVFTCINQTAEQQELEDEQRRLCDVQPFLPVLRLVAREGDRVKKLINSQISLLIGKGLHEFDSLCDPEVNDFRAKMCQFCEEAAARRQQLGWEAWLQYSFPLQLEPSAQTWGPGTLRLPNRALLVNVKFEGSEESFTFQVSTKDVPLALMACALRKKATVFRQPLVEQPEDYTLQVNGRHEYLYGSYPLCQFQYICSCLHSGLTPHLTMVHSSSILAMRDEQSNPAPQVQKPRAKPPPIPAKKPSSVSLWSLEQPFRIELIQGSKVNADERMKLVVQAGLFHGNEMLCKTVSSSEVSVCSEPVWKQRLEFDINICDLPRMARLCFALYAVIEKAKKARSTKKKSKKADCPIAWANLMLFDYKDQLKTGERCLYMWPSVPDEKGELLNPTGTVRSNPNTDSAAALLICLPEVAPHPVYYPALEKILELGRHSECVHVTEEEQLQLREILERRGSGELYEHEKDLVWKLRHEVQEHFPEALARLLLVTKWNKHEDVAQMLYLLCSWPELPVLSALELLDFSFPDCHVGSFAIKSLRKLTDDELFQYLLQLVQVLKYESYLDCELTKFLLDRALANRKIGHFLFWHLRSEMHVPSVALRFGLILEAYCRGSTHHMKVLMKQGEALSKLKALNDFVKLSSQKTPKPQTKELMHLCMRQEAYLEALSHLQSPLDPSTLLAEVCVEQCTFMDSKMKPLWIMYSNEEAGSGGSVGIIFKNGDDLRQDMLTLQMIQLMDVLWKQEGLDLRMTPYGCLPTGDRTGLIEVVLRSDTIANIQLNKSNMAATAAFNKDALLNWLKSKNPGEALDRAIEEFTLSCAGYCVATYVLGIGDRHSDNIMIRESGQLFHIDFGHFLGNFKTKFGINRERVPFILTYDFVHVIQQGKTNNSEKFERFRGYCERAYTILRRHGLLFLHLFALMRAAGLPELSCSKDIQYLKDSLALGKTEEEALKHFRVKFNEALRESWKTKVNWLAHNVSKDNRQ
T4 sequence (P27986 whole entry partner): as the sequence (P27986 whole entry partner) above

Regarding `O=C1NC(=O)/C(=C/c2ccc(-c3ccc(F)cc3O)o2)S1` [AS-252424, reference compound], the IC50 at p110γ [1] is 30 nM. In data set [2], the “effect on IgM secretion” value is listed as “no significant effect”.
For `CC(C)n1c([C@H](C)Nc2ncnc(N)c2C#N)cc2cccc(-c3ccc(=O)n(C)c3)c2c1=O` [IPI-3063], the IC50 at p110α [3] stood at 1170 nM; at p110γ [4], 2190 nM; at p110δ [5], 2.5 ± 1.2 nM; in the data set with p110δ [6] (p110δ-specific cell-based assay, pAKT S473, read-out: Cellular IC50) it was 0.1 ± 0.01 nM; in the data set on p110α [7] it was 1900 nM; at p110β, 1510 nM. Also, the IC50 at p110γ [8] stood at 419 ± 117 nM. Moreover, the “cellular IC50 values for the other class I PI3K isoforms relative to p110δ” value in the data set with p110δ [6] (other class I isoforms vs p110δ, cell-based) is “at least 1,000 fold”. Besides, the pharmacokinetics in mice entry in data set [9] is given as “good”.

Usually IC50 stands for the concentration that inhibits the measured activity by half.
